Experimental data taken from patent publication US9309314B2, “Polypeptides, nucleic acids and uses thereof” (AGENCY FOR SCIENCE, TECHNOLOGY AND RESEARCH (A*STAR), priority 2013, dated 2016).
“Also recorded” adds a separate entry of the source.

Experiments:
hESCs [1] = assay: Embryoid body differentiation of ELA-treated hESCs (qPCR); type: cell-based, human
Procedure: Embryoid body differentiation was performed by plating 1 million cells per well of an Aggrewell 400 plate in Aggrewell Medium (Stem Cell Technologies) followed by harvesting and replating into low-adhesion plates (Corning).
(§1) After the indicated time periods, embryoid bodies were harvested and RNA extracted using RNeasy kit […]. qPCR reactions were carried out using either Universal FastStart SYBR Green Mastermix (Roche) or using the Universal Probe Library system (Roche) in tandem with Taqman Fast Mastermix (Invitrogen). Primer sequences can be found in Table E1.

[2] = system: human chondrosarcoma cell line; assay: Growth and survival of chondrosarcoma cells with recombinant ELA; type: cell-based; details: unipotent human chondrosarcoma cells
Procedure: (§2) Primary human fibroblasts, SW1353 chondrosarcoma (ATCC) and NTERA2 hECs (a gift from Barbara Knowles and Davor Solter) were grown in Dulbecco's modified Eagle's medium (DMEM) with 10% FBS (Hyclone), 2 mM GlutaMAX™ (Invitrogen) and 1 mM sodium pyruvate.
(§3) For xCELLigence real time growth assays, 4000 cells were plated per well of an E-plate (ACEA Biosciences) with media changes every 48 hours.
(§4) Recombinant ELA was added at 2.5 uM (or 10 μg/ml). Cell cycle studies were performed with Click-iT EDU staining kit (Invitrogen) and by performing a double thymidine block (2.5 mM thymidine; 16 hour block, 8 hour release, 16 hour block) followed by DAPI staining for DNA content at the indicated times following release.

SSEA3 and TRA-1-60 = assay: FACs of stem cell surface markers in ELA-treated hESCs; type: cell-based, human; details: hESCs treated with recombinant ELA
hESCs [3] = assay: hESC growth assays (cell counts, colony size, xCELLigence real time cell index); type: cell-based, human
Procedure: Feeder-free hESCs were cultured in clumps in mTSER1 (Stem Cell Technologies) on Matrigel (BD 354277).
hESCs were dissociated into single cells using Accutase (Stem Cell Technologies) and plated in the presence of 10 μM Y-27632 (ROCK inhibitor) for 12 hours (Watanabe et al., 2007).
as §3, §4

hECs = assay: Growth and survival of hECs with recombinant ELA; type: cell-based, human; details: multipotent hECs
Procedure: as §2, §3, §4

heart failure = assay: Heart failure (APELIN publications repeated with ELABELA); details: in vivo
Description: Nature 2012 Aug. […] J Clin Invest. 2013 Nov. 1.

[4] = system: myocardial ischaemia-reperfusion injury; assay: Myocardial ischaemia-reperfusion injury (APELIN publications repeated with ELABELA); type: in vivo; details: administered during reperfusion
Description: Peptides 2009; 30:1144-52. • Simpkin J C, Yellon D M, Davidson S M, Lim S Y, Wynne A M, Smith C C. […] Basic Res Cardiol 2007; 102:518-28.

hESCs [5] = assay: Directed endoderm differentiation of hESCs (SOX17+ cell count); type: cell-based, human; details: 2.5 uM ELA peptide up to day 3
Procedure: Shef4TetR5-shELA and Shef4TetR5-shβ2M cells were cultured in the presence (shELA and shβ2M respectively) or absence (Control) of 20 ng/ml doxycycline for 1 passage (4 days) and dissociated with Accutase. […] 24 hours later, the media was changed to Endo differentiation media 1 [RPMI 1640 (Gibco), 1X B-27 supplement (Invitrogen), 50 ng/ml of Activin A (R&D Systems), 25 ng/ml BMP4 (R&D Systems) and 50 ng/ml bFGF (Invitrogen)] for 3 days. On day 3, the media was changed to Endo differentiation media 2 (RPMI 1640, B27, 50 ng/ml Activin) for 2 more days of culture. Rescue experiments were performed by adding 2.5 uM of ELA peptide to Shef4TetR5-shELA concurrently with doxycycline up to day 3, when the ELA peptide is no longer necessary as judged by downregulation of endogenous ELA.
On day 5, cells were fixed with 4% paraformaldehyde and stained with α SOX17 (AF1924, R&D Systems) and DAPI. For each well, three different randomly selected fields were imaged and the number of nuclei staining positive of SOX17 and DAPI were counted using a custom macro in ImageJ. A minimum of two wells per condition was used for each experiment, and a minimum of two independent experiments were performed to generate the results.

atherosclerosis = assay: Atherosclerosis (APELIN publication repeated with ELABELA); details: mouse, in vivo
Description: J Clin Invest 2008; 118:3343-54.
The experiments described in the above publication are repeated, with the replacement of APELIN with ELABELA.

erectile function = assay: Erectile dysfunction (APELIN publication repeated with ELABELA); details: mouse, in vivo
Description: J Sex Med. 2013 Apr. 11. doi: 10.1111/jsm.12158.

[6] = system: primary human fibroblasts; assay: Growth and survival of primary fibroblasts with recombinant ELA; type: cell-based; details: primary fibroblast cells
Procedure: as §2, §3, §4

[7] = system: mesendodermal genes including GATA6, GATA4, FOXA2, EOMES and BRA; assay: qPCR of mesendodermal markers in hESCs; type: cell-based, human
Procedure: as §1

myocardial infarction = assay: Coronary artery disease / myocardial infarction (APELIN publications repeated with ELABELA); type: in vivo, rat
Description: Peptides 2013; 46:76-82. • Li L, Zeng H, Chen J X. Apelin-13 increases myocardial progenitor cells and improves repair postmyocardial infarction. Am J Physiol Heart Circ Physiol 2012; 303:H605-18. • Pisarenko O I, Serebryakova L I, Pelogeykina Y A, et al. In vivo reduction of reperfusion injury to the heart with apelin-12 peptide in rats. Bull Exp Biol Med 2011; 152:79-82.

hESCs [8] = assay: Uptake of FITC-labeled recombinant ELA by hESCs (immunofluorescence); type: cell-based, human; details: peptide labeled with FITC
other tested cell types = assay: Cellular uptake of recombinant ELA in other tested cell types; type: cell-based; details: other tested cell types than hESCs
shELA hESCs = assay: Rescue of growth of shELA hESCs by exogenous peptide; type: cell-based, human; details: addition of recombinant peptide
Procedure: as §3, §4
To generate stable inducible knockdown of ELA in hESCs, the sequence […] (SEQ ID NO: 132) targeting the 3′UTR of ELA was cloned into pSUPERIOR (Oliogoengine) and nucleofected (Lonza) into Shef4TetR5 hESCs (Zafarana et al., 2009). Neomycin-resistant cells were clonally expanded and assayed for doxycycline (20 ng/ml)-inducible knockdown. Data from one representative clone (Shef4TetR5 shELA) are shown in this paper. Shef4TetR5 shβ2M were derived as previously described (Zafarana et al., 2009). Unless otherwise stated, ELA knockdown was induced on Day −4 with 20 ng/ml doxycycline to generate shELA cells.

blood pressure = assay: Hypertension (APELIN publications repeated with ELABELA); details: in vivo
Description: Regulatory Peptides. 2001; 99(2-3):87-92. • Cheng X, Cheng X S, Pang C C. […] European Journal of Pharmacology. […] Journal of the American College of Cardiology. 2008; 52(11):908-913.

[9] = system: pulmonary arterial hypertension; assay: Pulmonary arterial hypertension (APELIN publications repeated with ELABELA); details: in vivo
Description: J Clin Invest 2011; 121:3735-46.
Am J Physiol Heart Circ Physiol 2009; 296:H2007-14.

QRPVNLTMRRKLRKHNCLQRRCMPLHSRVPFP (listed as Homo sapiens) [ELA]
lineage commitment during embryoid body differentiation (hESCs [1]): can differentiate into all three germ layers; also recorded: not biased towards mesoderm or endoderm lineages | pro-growth and survival properties [2]: not seen; also recorded: exerted activity only on hESCs cultures | levels of cell surface markers SSEA3 and TRA-1-60 (SSEA3 and TRA-1-60): do not lose; also recorded: unchanged levels | growth of hESCs by cell numbers (hESCs [3]; FIG. 3C, relative to untreated hESCs): increased growth | survival of hESCs (hESCs [3]; FIG. 3D, relative to untreated hESCs): increased survival | concentration range in which the recombinant peptide is bioactive (hESCs [3]; hESCs, endogenous ELA in conditioned media is in the nM range): μM range | pro-growth and survival properties (hECs): not seen; also recorded: exerted activity only on hESCs cultures | protection against heart failure (heart failure): able to provide protection against heart failure | infarct size [4]: significantly decrease infarct size | rescue of endoderm differentiation of shELA hESCs (hESCs [5]): entirely rescued; also recorded: sufficient to rescue | Ang II-mediated increase in atherosclerosis burden (atherosclerosis): mitigates the Ang II-mediated increase in atherosclerosis burden | abdominal aortic aneurysm formation and rupture (atherosclerosis): inhibit abdominal aortic aneurysm formation and rupture | protection against atherosclerosis (atherosclerosis): can protect against atherosclerosis | erectile function (erectile function): significant restoration of erectile function | pro-growth and survival properties [6]: not seen; also recorded: exerted activity only on hESCs cultures | expression of mesendodermal markers [7]: significantly higher levels of mesendodermal markers; also recorded: consistently upregulated | myocardial infarction size and damage to cardiomyocytes (myocardial infarction; injection): limit the myocardial infarction size and reduce damage to cardiomyocytes | angiogenesis and cardiac repair postmyocardial infarction (myocardial infarction; rat, in vivo): promote angiogenesis and ameliorate cardiac repair postmyocardial infarction | uptake by hESCs (hESCs [8]): rapidly up-taken; also recorded: rapidly taken up | rapid cellular uptake (other tested cell types): not in other tested cell types | rescue of the growth of shELA hESCs (shELA hESCs): sufficient to rescue; also recorded: entirely rescued to normal levels | blood pressure (blood pressure): causes a reduction in blood pressure | symptoms of pulmonary arterial hypertension [9]: alleviates symptoms of pulmonary arterial hypertension | HIV-1 entry (HIV-1): prevents or slows-down HIV-1 entry
